In the SangsterLogP compilation one finds logP data, which are given here for 18 compounds.

The structures appear in SMILES notation.

Experiment in one data set: not given
A word on the logP: it is a log measure of how a compound divides between an organic and an aqueous phase. A high value points to higher lipophilicity. `CCCCCCN(C)C(=O)c1cccc(Oc2ccccc2)c1` gave a logP of 5.01. Same read-out and setting: for `CCCCCCOc1cccc(-c2cn(C)cc(-c3ccc(Cl)cc3)c2=O)c1` the value was 5.23.

Another data set in a line: method code SF, from PMID: 8453740.
Consider `Cc1ccc(C)c(Oc2cccc(C(=O)NC(C)C)c2)c1`, for which the logP came out at 4.35. Same read-out and setting: under `CCCCCN(C)C(=O)c1cccc(Oc2ccccc2)c1` stands 4.43; under `CCCCN(C)C(=O)c1cccc(Oc2ccccc2)c1`, 3.89. The same measure, in the same setting: under `CCCN(C)C(=O)c1cccc(Oc2ccccc2)c1` stands 3.44; under `CCCCCCOc1cccc(-c2cn(C)cc(-c3ccccc3)c2=O)c1`, 4.59. Same read-out and setting: under `CCCOc1cccc(-c2cn(C)cc(-c3ccccc3)c2=O)c1` stands 2.98; under `COc1cccc(-c2cn(C)cc(-c3ccccc3)c2=O)c1`, 1.94.

On to `CCN(C)C(=O)c1cccc(Oc2ccccc2)c1`, for which the log partition coefficient (logP) stood at 2.98.

Take `CCCCCOc1cccc(-c2cn(C)cc(-c3ccccc3)c2=O)c1`: the log partition coefficient (logP) came out at 4.07.

The compound `CN(C)C=C1OC(=O)C(C#N)=C1c1ccccc1` yielded a logP of 1.07. In turn, `Cc1ccc(C)c(Oc2cccc(C(=O)NC(C)(C)C)c2)c1` displayed a logP of 4.78. With `CNC1=C(c2cccc(C(F)(F)F)c2)C(=O)C(c2ccccc2)O1` (stereo not drawn), the lipophilicity (logP) is 3.22. For `CNC(=O)c1cccc(Oc2cc(C)ccc2C)c1`, the lipophilicity (logP) is 3.76. On the same count and under the same terms, under `CN(C)C(=O)c1cccc(Oc2ccccc2)c1` stands 2.57; under `CNC(=O)c1cccc(Oc2ccccc2)c1`, 2.86.

A short description of a further data set: method code SF-W, from PMID: 8453740.
Compound `CNc1cnn(-c2cccc(C(F)(F)F)c2)c(=O)c1Cl` showed a log partition coefficient (logP) of 2.52.
